Consider one molecule from US6642178B2, “Adjuvant blend for enhancing efficacy of pesticides” (priority 2001, dated 2003).

In assay [1] the test system is large crabgrass. The assay is described as follows: Large crabgrass control with nicosulfuron as influenced by adjuvants (greenhouse). The class given is in vivo. Conditions: nicosulfuron 0.2 oz/A, no adjuvant, 3 WAT. The source says: TABLE 2 includes the results of assessment made 3 WAT (weeks after treatment). Visible injury rating is on a scale 0 to 100% with 0% representing no visible injury and 100% complete kill.

Assay [2] concerns green foxtail. As to the kind of experiment: Green foxtail control with nicosulfuron as influenced by adjuvants (greenhouse). Type of assay: in vivo. Conditions: nicosulfuron 0.04 oz/A, no adjuvant; 2 WAT. The text has this: TABLE 3 includes the results of assessment made 2 WAT (weeks after treatment).

`COc1cc(OC)nc(NC(=O)NS(=O)(=O)c2ncccc2C(=O)N(C)C)n1` [nicosulfuron]: the “% fresh weight reduction” value turned out to be 57% in assay [1] and 0% in assay [2]. For the same molecule, in assay [1] (scale 0-100%), the “% visible injury” value was 31%.
